The text below walks through data of patent US11291625B2, “Antimicrobial compositions and methods for reducing microbial contamination” (PolyVation B.V., priority 2015, dated 2022).

The nature of this series: BKC / BEZ release assay from polymer film with aqueous BPB solution. The series is classed as physicochemical. The conditions noted are these: for release from 0.45% biocide coating without copolymer upon addition of the BPB solution: reference, no polymer. Here is the method:
The different 5 wt % polymer formulations were supplemented with 0.45 wt % BKC and 20 μl coated to the first well of each row of a 96-well plate. After evaporation of the solvent (2-propanol), 100 μl of an aqueous BPB ([…]) solution (25×10^−3 mmol/L) was added to the coated wells and the plate was incubated for 30 seconds at room temperature. Next, the aqueous phase was removed from the well and the formation of blue BPB-BKC complexes was assessed by visual inspection. This process was repeated until blue BPB-BKC complexes were no longer observed, and the number of repeated BPB incubation steps was recorded.
The slow release properties of the PVPM20, PVPMDM, PVPMEM and PVPDDM co-polymer formulations were verified in a BKC and a BEZ release test that were performed in 96-well plates. The different polymer formulations (i.e. PVPM20-85:15, PVPM20-80:20, PVPM20-65:35, PVPMDM-60:40, PVPMDM-75:25, PVPMEM-80:20 and PVPDDM-80:20 in 2-propanol at 2.5 wt % were supplemented with 0.45 wt % BKC or BEZ. 20 μl was coated to the first well of each row of a 96-well plate. After evaporation of the 2-propanol solvent, 100 μl of an aqueous BPB solution (25×10^−3 mmol/L) was added to the coated wells and the plate was incubated for 30 seconds at room temperature. BPB forms a blue complex with free BKC and free BEZ when it is released from the polymer film into an aqueous solution. Of note, the BPB-BKC or BPB-BEZ complex is blue, whereas the BPB solution itself is purple (20). Next, the aqueous phase was removed from the well and the formation of blue BPB-BKC or BPB-BEZ complexes was assessed by visual inspection. This process was repeated until blue BPB-BKC complexes were no longer observed, and the number of repeated BPB incubation steps was recorded.
The number of cycles needed to release readily detectable amounts of BKC or BEZ was used as a measure to assess the BKC-retaining or BEZ-retaining properties of the different polymer formulations.

On to benzalkonium chloride [BKC only], for which the “release from 0.45% biocide coating without copolymer upon addition of the BPB solution” value is “dissolved instantaneously”. For the same compound, the “Test1 (BKC): Number of incubations after which BKC was no longer detectable” value (0.45 wt % BKC, 30 seconds incubations with aqueous BPB solution, room temperature) is recorded as 1x.
As for `CC(C)(C)CC(C)(C)c1ccc(OCCOCC[N+](C)(C)Cc2ccccc2)cc1` [BEZ only, benzethonium chloride], the “release from 0.45% biocide coating without copolymer upon addition of the BPB solution” value is listed as “dissolved instantaneously”. Where the note is “0.45 wt % BEZ, 30 seconds incubations with aqueous BPB solution, room temperature”, the “Test2 (BEZ): Number of incubations after which BEZ was no longer detectable” value was 1x.
